Series [1] is described as follows: In vivo stability of 125I/14C-IRAs in brain (acid precipitation). Details: species or system male CD-1 mice. The settings on record: mouse, iv. The method, then: (§1) We measured the stability of the radiolabeled IRAs in brain and blood. Following anesthetization, arterial blood and whole brain were taken at two time points (10 or 60 min) after iv injection of 3 × 10^5 cpm-1×10^6 cpm of ^125I/^14C-IRA in 0.2 ml of BSA/LR. The blood samples were allowed to clot, centrifuged at 3200 ×g for 10 min, and 50 μl of the separated serum was added to 250 μl of BSA-LR. Samples were combined with equal volume 30% TCA (300 μl), mixed, and then centrifuged for 10 min at 5400 ×g. Brains were homogenized in 800 μl of BSA-LR with a bead beater for 30 sec at 4800 rpm twice. Following centrifugation at 5400 ×g for 15 min, a portion of the resulting supernatant was added to an equal volume of 30% TCA, mixed, and then centrifuged at 5400 ×g for 10 min. The radioactivity in the resulting supernatant and pellet (Sup and Pel fractions) for serum and brain was calculated separately, and the percent of radioactivity in the precipitate was calculated using the following equation:(1) %AcidPrecip=100×Pel/Sup+Pel
(§2) To correct for degradation that might have occurred during the processing, ^125I/^14C-IRA was added to non-radioactive arterial whole blood or to whole brain and processed as above. The biological samples were corrected for degradation during processing by dividing their values by those for processing control (Pcon) values and multiplying by 100. This can sometimes result in a value greater than 100%.
(§3) Immediately after counting the radioactivity, the blood and brains from the 10 min and 6 h time points were processed as described in Section 2.5 for in vivo stability. For further comparison, data from the 1 h time point were taken from the original pharmacokinetic uptake study. The ^125I-IRA brain % acid precipitation (%AP) was divided by the ^125I-IRA serum %AP at each time point to calculate the %AP B/S ratio. This value was multiplied by the B/S ratio for each ^125I-IRA to correct for degradation over the 10 min, 1 h, or 6 h time periods. Corrected AP B/S ratios were then corrected for vascular space by subtracting the ^99mTc-Alb B/S ratio within each mouse for the 10 min and 6 h time points (AP corrected delta B/S ratio). For the 1 h time point, the average ^99mTc-Alb B/S ratio (10.03 μl/g) at 10 min across all ^125I-IRAs was used for correction. The AP corrected delta B/S ratio for each ^125I-IRA was then multiplied by the %Inj/ml within each mouse to calculate the AP corrected delta %Inj/g.

Details of series [2]: species or system male CD-1 mice. The settings on record: mouse, in vivo, iv. As for the experimental part:
Anesthetized mice were co-injected iv with 3 × 10^5 cpm-1×10^6 cpm ^125I/^14C-IRA and 5 × 10^5 cpm of ^99mTc-Alb in 0.2 ml BSA-LR with or without 1 μg of the non-radioactive IRA. Fifteen minutes after iv injection, blood was collected from the right carotid artery, and the whole brain was removed and weighed. Samples were counted for radioactivity. Results were expressed as delta B/S ratios in units of μl/g.

Series [3] in a line: In vivo stability of 125I/14C-IRAs in blood/serum (acid precipitation). On the set-up: species or system male CD-1 mice. The settings on record: mouse, iv. The method, then:
as §1, §2, §3

A short description of series [4]: Brain influx and initial volume of distribution (multiple-time regression analysis). The settings on record: mouse, in vivo, iv. Details: species or system male CD-1 mice. As for the experimental part:
Following anesthetization, the jugular vein and right carotid artery were exposed. Mice were given a jugular vein injection of 0.2 ml BSA-LR containing 3 × 10^5 cpm-1×10^6 cpm of an ^125I/^14C-labeled IRA and 5 × 10^5 cpm of ^99mTc-Alb. Blood samples were collected from the carotid artery at various time points from 1 to 60 min after iv injection (see Figure 1). Mice were then decapitated, and their brains were removed and weighed. After clotting, the arterial blood was centrifuged at 3200 ×g for 10 min. Levels of radioactivity in serum (50 μl) and brain were measured in a gamma counter for ^125I and ^99mTc for 3 min. After ^99mTc decay, ^14C-DA5-CH samples were solubilized with Solvable (Sigma), transferred to scintillation vials containing Ecoscint (National Diagnostics) and ^14C was measured in a beta counter. Sample injection checks were taken throughout the course of the study to calculate the mean injected cpm/mouse. To determine the rate of ^125I/^14C-IRA clearance from the serum, the results were expressed as the percentage of an injected dose in each ml of serum (%Inj/ml), which was calculated by dividing the cpm in a ml of serum (cpm/ml serum) by the cpm injected into the mouse (cpm/Inj):
To calculate the blood-to-brain unidirectional influx constant (Ki), multiple-time regression analysis was used as first described by Patlak, Blasberg, and Fenstermacher.[67],[68] The brain/serum (B/S) ratios (μl/g) of the ^125I/^14C-IRA in each gram of brain were calculated from the data in Section 2.6 and plotted against their respective exposure times as previously applied by Rhea et al. 2018.[69] Exposure time differs from clock time in that exposure time corrects for clearance of the ^125I/^14C-IRA from blood and thus, better represents the amount of ^125I/^14C-IRA available for BBB transport at any given time. Delta B/S ratios were calculated by subtracting the vascular space as measured by the B/S ratio for ^99mTc-Alb from the B/S ratio for the respective ^125I/^14C-IRA. Thus, delta B/S ratios represent material that has been taken up by or has crossed the BBB. The slope of the linear portion of the relation between delta B/S ratios and exposure time defines Ki (μl/g-min) and is reported with its error term. This represents Model 1 for DA5-CH. The y-intercept of this linear portion of the relation defines Vi, (μl/g), the initial volume of distribution in brain at t = 0, which is the functional volume per unit brain mass of a soluble compound that exchanges rapidly and reversibly with plasma.[68] Vi consists of the vascular space (Vv) and any residual space after accounting for Vv and usually represents vascular binding (Vr). Since we correct each ^125I/^14C-IRA delta B/S for vascular space, our y-intercept values likely represent vascular binding. For DA5-CH, there appeared to be rapid, early transport that would indicate a Vr equal to 0. Therefore, using Vr equal to 0, we calculated an estimate of this new Ki and refer to it throughout the manuscript as Model 2.

On to `CC[C@H](C)[C@H](NC(=O)[C@H](CC(C)C)NC(=O)[C@H](Cc1c[nH]c2ccccc12)NC(=O)[C@H](CCC(N)=O)NC(=O)[C@@H](NC(=O)[C@H](Cc1ccccc1)NC(=O)[C@H](C)NC(=O)[C@H](CCCCNC(=O)COCCOCCNC(=O)COCCOCCNC(=O)CC[C@H](NC(=O)CCCCCCCCCCCCCCCCCCC(=O)O)C(=O)O)NC(=O)[C@H](CCC(N)=O)NC(=O)[C@H](C)NC(=O)[C@@H](NC(=O)[C@H](CCCCN)NC(=O)[C@H](CC(=O)O)NC(=O)[C@H](CC(C)C)NC(=O)C(C)(C)NC(=O)[C@@H](NC(=O)[C@H](CO)NC(=O)[C@H](Cc1ccc(O)cc1)NC(=O)[C@H](CC(=O)O)NC(=O)[C@H](CO)NC(=O)[C@@H](NC(=O)[C@H](Cc1ccccc1)NC(=O)[C@@H](NC(=O)CNC(=O)[C@H](CCC(=O)O)NC(=O)C(C)(C)NC(=O)[C@@H](N)Cc1ccc(O)cc1)[C@@H](C)O)[C@@H](C)O)[C@@H](C)CC)[C@@H](C)CC)C(C)C)C(=O)N[C@@H](C)C(=O)NCC(=O)NCC(=O)N1CCC[C@H]1C(=O)N[C@@H](CO)C(=O)N[C@@H](CO)C(=O)NCC(=O)N[C@@H](C)C(=O)N1CCC[C@H]1C(=O)N1CCC[C@H]1C(=O)N1CCC[C@H]1C(=O)N[C@@H](CO)C(N)=O` [Tirzepatide], for which, in series [1], the “Percentage of labeled IRA intact, Whole Brain, 10 min” value stood at 100.7 ± 0.0% and the “Percentage of labeled IRA intact, Whole Brain, 60 min” value came out at 99.73 ± 0.6%. Further, the “Whole Brain delta brain/serum ratio, Without unlabeled IRA” value in series [2] is -0.16 ± 0.13 µL/g. In addition, in series [3], the “Percentage of labeled IRA intact, Serum, 10 min” value came out at 100.5 ± 0.0% and the “Percentage of labeled IRA intact, Serum, 60 min” value came to 99.65 ± 0.1%. For the same compound, in series [4], the “Brain influx within 1 h of iv injection (detection)” value is reported as “did not detect brain influx”.

The record behind these values is paper PMC11583597, “Brain uptake pharmacokinetics of albiglutide, dulaglutide, tirzepatide, and DA5-CH in the search for new treatments of Alzheimer’s and Parkinson’s diseases” (Tissue Barriers, 2023).
